We go through 12 compounds from patent US6465482B2, “Arylpiperazinyl-cyclohexyl indole derivatives for the treatment of depression” (Wyeth, priority 1999, dated 2002).

The structures appear in SMILES notation. Where a name gives a salt, the structure may show the parent alone.

For the compound `c1cc(N2CCN([C@H]3CC[C@H](c4c[nH]c5ncccc54)CC3)CC2)c2cc[nH]c2c1` (as salt: HCl) [Example 10b, 3-{(1,4-trans)-4-[4-(1H-Indole-4-yl)-piperazin-1-yl]-cyclohexyl}-1H-pyrrolo[2,3-b]pyridine], the melting point (as a rule, the temperature, or range, at which the solid turns liquid) is > 250 °C (dec.). `CCn1cc([C@H]2CC[C@H](N3CCN(c4cccc5[nH]ccc45)CC3)CC2)c2cc(C#N)ccc21` (as salt: HCl) [Example 13b, 1-Ethyl-3-{(1,4-trans)-4-[4-(1H-indol-4-yl)-piperazin-1-yl]-cyclohexyl}-1H-indole-5-carbonitrile]: the melting point was 250 °C (dec.). Consider `Cn1ccc2c(N3CCN([C@H]4CC[C@@H](c5cn(C)c6ccc(C#N)cc65)CC4)CC3)cccc21` (as salt: HCl) [Example 17, 1-Methyl-3-{(1,4-cis)-4-[4-(1-methyl-1H-indol-4-yl)-piperazin-1-yl]-cyclohexyl}-1H-indole-5-carbonitrile], for which the melting point lay within 252 to 255 °C. Consider `COc1ccccc1N1CCN([C@H]2CC[C@@H](c3c[nH]c4ccc(F)cc43)CC2)CC1` (as salt: HCl) [Example 18, 5-Fluoro-3-{(cis)-4-[4-(2-methoxy-phenyl)-piperazin-1-yl]-cyclohexyl}-1H-indole], for which the melting point lay within 170 to 172 °C.

For the compound `COc1ccccc1C1CCN([C@H]2CC[C@@H](c3c[nH]c4ccc(F)cc43)CC2)CC1` (as salt: HCl) [Example 19a, 5-Fluoro-3-{(1,4-cis)-4-[4-(2-methoxy-phenyl)-piperidin-1-yl]-cyclohexyl}-1H-indole], the melting point is 245 to 250 °C. For `COc1ccccc1C1CCN([C@H]2CC[C@H](c3c[nH]c4ccc(F)cc43)CC2)CC1` (as salt: HCl) [Example 19b, 5-Fluoro-3-{(1,4-trans)-4-[4-(2-methoxy-phenyl)-piperidin-1-yl]-cyclohexyl}-1H-indole], the melting point lay within 297 to 299 °C.

For the compound `COc1ccc2[nH]cc([C@H]3CC[C@@H](N4CCN(c5ccccc5OC)CC4)CC3)c2c1` (as salt: HCl) [Example 20a, 5-Methoxy-3-{(1,4-cis)-4-[4-(2-methoxy-phenyl)-piperazin-1-yl]-cyclohexyl}-1H-indole], the melting point fell in the range of 198 to 199 °C. The value for `COc1ccc2[nH]cc([C@H]3CC[C@H](N4CCN(c5ccccc5OC)CC4)CC3)c2c1` (as salt: HCl) [Example 20b, 5-Methoxy-3-{(1,4-trans)-4-[4-(2-methoxy-phenyl)-piperazin-1-yl]-cyclohexyl}-1H-indole] was 195 to 197 °C. For `COc1ccccc1N1CCN([C@H]2CC[C@@H](c3c[nH]c4ncccc43)CC2)CC1` (as salt: HCl) [Example 21, 3-{(1,4-cis)-4-[4-(2-Methoxy-phenyl)-piperazin-1-yl]-cyclohexyl}-1H-pyrrolo[2,3-b]pyridine] the value was 259 to 261 °C; for `COc1ccc(F)cc1N1CCN([C@H]2CC[C@@H](c3c[nH]c4ccc(F)cc43)CC2)CC1` (as salt: HCl) [Example 22a, 5-Fluoro-3-{(cis)-4-[4-(5-fluoro-2-methoxy-phenyl)-piperazin-1-yl]-cyclohexyl}-1H-indole], 171 to 174 °C. Compound `COc1ccc(F)cc1N1CCN([C@H]2CC[C@H](c3c[nH]c4ccc(F)cc43)CC2)CC1` (as salt: HCl) [Example 22b, 5-Fluoro-3-{(trans)-4-[4-(5-fluoro-2-methoxy-phenyl)-piperazin-1-yl]-cyclohexyl}-1H-indole] showed a melting point of 272 to 273.5 °C. The value for `Fc1cccc2[nH]cc([C@H]3CC[C@@H](N4CCN(c5cccc6c5OCCO6)CC4)CC3)c12` (as salt: HCl) [Example 23a, 3-{(1,4-cis)-4-[4-(2,3-Dihydro-benzo[1,4]dioxin-5-yl)-piperazin-1-yl]-cyclohexyl}-4-fluoro-1H-indole] was 215 to 220 °C.
